The values below come from ChEMBL document CHEMBL4049412, “Evolution of matrinic ethanol derivatives as anti-HCV agents from matrine skeleton” (Bioorg Med Chem Lett, 2017).

Molecules are shown by their SMILES.

For series [1], the system named is Hepatitis C virus. The experiment in a line: Antiviral activity against Hepatitis C virus infected in human Huh7.5 cells assessed as reduction in viral RNA level after 72 hrs by RT-PCR method. Particulars: Huh7.5, 72 h. The class given is functional, cell-based, Hepacivirus hominis.
Series [2] in a line: Cytotoxicity against human Huh7.5 cells after 72 hrs by MTT assay. The class given is cell-based. Background: Tetrazolium dyes change colour on reduction, which living cells bring about.
Series [3] can be described thus: Selectivity index, ratio of CC50 for human Huh7.5 cells to EC50 for Hepatitis C virus infected in human Huh7.5 cells. The following applies: read-out: Ratio CC50/EC50. The series is classed as toxicity, cell-based.
A short description of series [4]: Acute toxicity in Kunming mouse administered as single oral dose measured for 7 days. Particulars: in vivo.
A short description of series [5]: Tmax in Sprague-Dawley rat at 25 mg/kg, po administered as single dose. The following applies: in vivo. The class given is ADME, organism-based.
Series [6] is described as follows: Cmax in Sprague-Dawley rat at 25 mg/kg, po administered as single dose. The following applies: in vivo. Details: dose 25 mg/kg, route oral. The series is classed as ADME, organism-based.
A short description of series [7]: AUC (0 to t) in Sprague-Dawley rat at 25 mg/kg, po administered as single dose. The class given is ADME, organism-based. Particulars: in vivo.
Series [8] can be described thus: AUC (0 to infinity) in Sprague-Dawley rat at 25 mg/kg, po administered as single dose. The series is classed as ADME, organism-based. Also noted: dose 25 mg/kg, route oral, time infinity. Particulars: in vivo.
Series [9] is described as follows: Mean residence time in Sprague-Dawley rat at 25 mg/kg, po administered as single dose. The class given is ADME, organism-based. The following applies: in vivo.
The nature of series [10]: Half life in Sprague-Dawley rat at 25 mg/kg, po administered as single dose. The series is classed as ADME, organism-based. Particulars: in vivo.

Usually EC50 stands for the concentration needed to bring the measured effect to its halfway point. Broadly, the CC50 is the concentration that lowers cell viability or growth by half. Lower therefore signals greater toxicity to the cells. On to `COc1ccc(CN2C[C@@H]3CCCN4CCC[C@@H]([C@H]34)[C@H]2CCCC(=O)O)cc1`, for which the 50% effective concentration (EC50) in series [1] came out at 22.7 µM. For the same compound, the CC50 at 72 h in series [2] was > 500 µM. Also, the selectivity ratio in series [3] was > 22.
For the compound `O=C(O)C[C@@H]1[C@H]2CCCN3CCC[C@@H](CN1Cc1ccc(C(F)(F)F)cc1)[C@@H]23`, the concentration for a half-maximal effect (EC50) in series [1] was > 167 µM. Further, in [2], the CC50 at 72 h turned out to be 244 µM.
As usually defined, the LD50 is the dose expected to kill half of the subjects tested. As usually defined, the Tmax is the time at which the peak concentration occurs. What is called Cmax is the highest concentration seen after dosing. As usually defined, the AUC(0-t) is the area under the concentration-time curve up to a stated or last time point. Read a low AUC(0-t) as low exposure. By AUC(0-inf) is commonly meant the area under the concentration-time curve extrapolated to infinity. The term MRT denotes a mean duration of stay, worked out from the concentration-time curve. What is called half-life is the time in which the quantity being followed falls by half. Lower therefore signals fast loss. As for `COc1ccc(CN2C[C@@H]3CCCN4CCC[C@@H]([C@H]34)[C@H]2CCO)cc1`, the EC50 in series [1] was 3.2 µM. In addition, the 50% cytotoxic concentration (CC50) at 72 h in [2] came out at 309 µM. Besides, the selectivity ratio in [3] turned out to be 96.6. In addition, the LD50 at 168 h in series [4] is > 250 mg/kg. In [5], the Tmax is 0.33 h. The Cmax in series [6] turned out to be 310 nM. In [7], the AUC(0-t) turned out to be 0.5 µM·h. The AUC(0-inf) in series [8] was determined as 0.56 µM·h. This compound also came in with a mean residence time MRT in [9] of 1.6 h. The half-life in [10] was 2.08 h.
Turning to `COC(=O)C[C@@H]1[C@H]2CCCN3CCC[C@@H](CN1C(=O)c1ccc(OC)cc1)[C@@H]23`, the EC50 in series [1] stood at 3.03 µM. For the same compound, the CC50 at 72 h in [2] was > 500 µM. Also, the selectivity ratio in [3] was > 165.
On the same counts, the results for `CCCN1C[C@@H]2CCCN3CCC[C@@H]([C@H]23)[C@H]1CCO` are 4.95 µM, > 500 µM and > 101.
In the same order, the values of `CCOc1ccc(CN2C[C@@H]3CCCN4CCC[C@@H]([C@H]34)[C@H]2CC(=O)OC)cc1OC` are 8.06 µM, > 500 µM and > 62.
In the same order, the values of `Cc1ccc(CN2C[C@@H]3CCCN4CCC[C@@H]([C@H]34)[C@H]2CC(=O)O)cc1` are 47.5 µM, > 500 µM and > 10.5.
Take `O=C(O)C[C@@H]1[C@H]2CCCN3CCC[C@@H](CN1Cc1ccc([N+](=O)[O-])cc1)[C@@H]23`: the 50% effective concentration (EC50) in series [1] was 104 µM. Further, the CC50 at 72 h in [2] is > 500 µM. Besides, the selectivity ratio in [3] is > 4.81.
Take `COc1cccc(CN2C[C@@H]3CCCN4CCC[C@@H]([C@H]34)[C@H]2CCO)c1OC`: in series [1], the EC50 stood at 6.71 µM. In series [2], this compound returned a CC50 at 72 h of 305 µM. Besides, in series [3], the selectivity ratio came to 45.5.
On the same counts, the results for `OCC[C@@H]1[C@H]2CCCN3CCC[C@@H](CN1Cc1ccc(F)cc1F)[C@@H]23` are 5.18 µM, 217 µM and 41.9.
On the same counts, the results for `O=C(O)C[C@@H]1[C@H]2CCCN3CCC[C@@H](CN1Cc1ccc(Cl)c(Cl)c1)[C@@H]23` are 21.2 µM, 141 µM and 6.65.
In the same order, the values of `COC(=O)C[C@@H]1[C@H]2CCCN3CCC[C@@H](CN1Cc1ccccc1C)[C@@H]23` are 7.14 µM, 230 µM and 32.2.
For `COc1ccc(C(=O)N2C[C@@H]3CCCN4CCC[C@@H]([C@H]34)[C@H]2CCCC(C)(C)O)cc1`, the EC50 in [1] stood at 24.6 µM. For the same compound, the CC50 at 72 h in [2] amounted to 362 µM. Further, the selectivity ratio in series [3] is 14.7.
On the same counts, the results for `COC(=O)C[C@@H]1[C@H]2CCCN3CCC[C@@H](CN1Cc1ccc(F)cc1F)[C@@H]23` are 1.09 µM, 128 µM and 118.
In the same order, the values of `O=C(O)C[C@@H]1[C@H]2CCCN3CCC[C@@H](CN1Cc1ccccc1)[C@@H]23` are 114 µM, > 500 µM and > 4.39.
For `CCOc1ccc(CN2C[C@@H]3CCCN4CCC[C@@H]([C@H]34)[C@H]2CCO)cc1OC`, the EC50 in series [1] is 5.36 µM. The CC50 at 72 h in series [2] was > 500 µM. Besides, the selectivity ratio in [3] is > 93.3.
With `COC(=O)C[C@@H]1[C@H]2CCCN3CCC[C@@H](CN1Cc1ccc(OC)cc1)[C@@H]23`, in series [1], the EC50 is 7.81 µM. This compound also registered a CC50 at 72 h in series [2] of 392 µM. In addition, in series [3], the selectivity ratio came to 50.2. In series [4], the LD50 at 168 h is > 250 mg/kg. Also, the Tmax in [5] worked out at 0.5 h. In series [6], this compound registered a Cmax of 360 nM. In addition, in series [7], the AUC(0-t) was 0.67 µM·h. For the same compound, in [8], the AUC(0-inf) turned out to be 0.69 µM·h. In series [9], the mean residence time (MRT) is 2.25 h. Also, the half-life in series [10] was 6.36 h.
Turning to `COc1ccc(CN2C[C@@H]3CCCN4CCC[C@@H]([C@H]34)[C@H]2CC(=O)O)cc1`, in series [1], the EC50 stood at 27.6 µM. Further, the CC50 at 72 h in series [2] was > 500 µM. For the same compound, the selectivity ratio in [3] was > 18.1. Also, the 50% lethal dose (LD50) at 168 h in [4] is > 500 mg/kg. In [5], the Tmax was found to be 0.42 h. In addition, the highest concentration (Cmax) in series [6] stood at 4960 nM. The same compound yielded an AUC(0-t) in [7] of 8.59 µM·h. The total exposure AUC(0-inf) in series [8] was 8.59 µM·h. Moreover, the MRT in [9] turned out to be 2.16 h. The half-life in series [10] is 2.54 h.
As to `O=C(O)C[C@@H]1[C@H]2CCCN3CCC[C@@H](CN1Cc1ccncc1)[C@@H]23`, the EC50 in series [1] came out at 47.2 µM. Besides, the CC50 at 72 h in series [2] is > 500 µM. In [3], the selectivity ratio is > 10.6.
On the same counts, the results for `O=[N+]([O-])c1ccc(CN2C[C@@H]3CCCN4CCC[C@@H]([C@H]34)[C@H]2CCO)cc1` are 3.5 µM, 118 µM and 33.7.
In the same order, the values of `Cc1cccc(CN2C[C@@H]3CCCN4CCC[C@@H]([C@H]34)[C@H]2CC(=O)O)c1` are 86.4 µM, > 500 µM and > 5.78.
In the same order, the values of `COC(=O)C[C@@H]1[C@H]2CCCN3CCC[C@@H](CN1Cc1ccc(C)cc1)[C@@H]23` are 2.29 µM, 215 µM and 93.7.
Consider `CCCCN1C[C@@H]2CCCN3CCC[C@@H]([C@H]23)[C@H]1CCO`, for which the half-maximal effective concentration (EC50) in series [1] was found to be 2.58 µM. For the same compound, the CC50 at 72 h in series [2] is > 500 µM. The selectivity ratio in [3] is > 193.
